Patent publication EP0244803B1, “Novel dopamine beta hydroxylase inhibitors” (MERRELL DOW PHARMACEUTICALS INC., priority 1986, dated 1987)

Legend:
[1] = tested on: spontaneously hypertensive rats (SHR's); assay: Antihypertensive effect: blood pressure monitored continuously in SHR's after ip administration; format: in vivo; conditions: 50 mg/kg; for Max Change MBP: mean difference ± standard deviation; for Max Change MBP (percent, in parentheses): percent change printed in parentheses
Experimental: The test compound is administered intraperitoneally (ip) to rats and the blood pressure monitored continuously.

[2] = tested on: DBH; assay: In vivo DBH inhibition: heart dopamine level in spontaneously hypertensive rats; conditions: Treated SHR's, 50 mg/kg, IP, 3 hours post dose; mean ± standard deviation; micrograms of dopamine per gram of heart tissue; *** p<.001 vs control
Experimental: In this test spontaneously hypertensive rats are dosed (i.p.) at 50 mg per kilogram of body weight and sacrificed three hours later.

[3] = molecular target: T1, dopamine beta-hydroxylase (DBH) (Bos taurus, UniProt P15101); assay: In vitro DBH inhibition: conversion of tyramine to octopamine, oxygen uptake measured with a polarographic electrode; format: biochemical; conditions: pH 5, 37°C preferred; concentration at which DBH activity was halved; read-out: IC₅₀
T1 sequence (P15101 33-610): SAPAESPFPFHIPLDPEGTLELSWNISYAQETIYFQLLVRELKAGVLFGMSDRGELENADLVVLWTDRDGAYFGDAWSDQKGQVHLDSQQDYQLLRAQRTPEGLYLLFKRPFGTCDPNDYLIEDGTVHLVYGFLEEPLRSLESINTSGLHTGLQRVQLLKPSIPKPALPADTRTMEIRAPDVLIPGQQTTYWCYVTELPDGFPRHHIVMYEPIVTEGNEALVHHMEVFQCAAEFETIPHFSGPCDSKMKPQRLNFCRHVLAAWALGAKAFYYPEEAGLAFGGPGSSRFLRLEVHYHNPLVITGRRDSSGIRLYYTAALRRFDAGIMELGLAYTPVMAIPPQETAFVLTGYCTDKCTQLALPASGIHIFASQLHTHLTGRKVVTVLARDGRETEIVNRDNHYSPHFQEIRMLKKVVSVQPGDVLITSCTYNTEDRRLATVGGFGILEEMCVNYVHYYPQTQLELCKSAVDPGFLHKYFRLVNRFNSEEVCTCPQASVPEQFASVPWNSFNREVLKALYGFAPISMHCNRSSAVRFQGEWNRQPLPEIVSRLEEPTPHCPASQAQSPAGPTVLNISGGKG
Experimental: The DBH inhibitory properties of the compounds of this invention can readily be determined in vitro by standard and well known procedures for assaying conversion of tyramine to octopamine in the presence of dopamine beta-hydroxylase. Enzymatic oxygenation by DBH is determined in aqueous solution in the presence of molecular oxygen, an electron donor such as ascorbate, and the necessary cofactors for the enzyme at pH of 5 and a temperature of 20°-40°C, preferably 37°C. The test compound is added at the desired concentration, and the system is incubated.

Compound | Max Change MBP [1] [mmHg] | Max Change MBP (percent, in parentheses) [1] [%] | Heart DA [2] | IC50 [3] [µM]
S=c1[nH]ccn1Cc1ccc(Cl)s1 [Compound 4, 1-[(5-Chloro-2-thienyl)methyl]-1,3-dihydro-2H-imidazole-2-thione] | -22±5 | 13 | Treated .046±.009*** µg/g | 
S=c1[nH]ccn1Cc1ccsc1 [Compound 2, 1,3-Dihydro-1-(3-thienylmethyl)-2H-imidazole-2-thione] | -21±27 | 12 | Treated .066±.012*** µg/g | 
Cc1ccc(Cn2cc[nH]c2=S)s1 [Compound 5, 1,3-Dihydro-1-[(5-methyl-2-thienyl)methyl]-2H-imidazole-2-thione] | -37±19 | 10 | Treated .048±.004*** µg/g | 6
1-[(Fluoro-2-thienyl)methyl]-1,3-dihydro-2H-imidazole-2-thione [Compound 6] | -42±17 | 25 | Treated .045±.005*** µg/g | 2.9
S=c1[nH]ccn1Cc1ccco1 [Compound 3, 1-(2-Furanylmethyl)-1,3-dihydro-2H-imidazole-2-thione] |  |  | Treated .079±.004*** µg/g | 
S=c1[nH]ccn1Cc1cccs1 [Compound 1, 1,3-Dihydro-(2-thienylmethyl)-2H-imidazole-2-thione] | -30±21 | 18 | Treated .066±.005*** µg/g | 
